The source of these data is a melting point compilation (Tetko et al.; mined from patent text by program, amines drawn as free bases though some values may be those of a salt).

A word on the melting point: it is the temperature of the solid-liquid transition.

The compound `Cc1ccc(S(=O)(=O)N2[C@@H](Cc3nc(C4CC4)no3)CC[C@H]2c2ccc(F)cc2)cc1` (racemic) showed a melting point of 102 °C.

Regarding `COc1cc(Br)nc2[nH]cc(C(C)=O)c12`, the melting point was above 210 °C.

Turning to `CCCCCCCCCCCC(=O)OCn1cc(F)c(=O)[nH]c1=O`, the melting point was found to be 114 °C.

With `CCN1C(=O)CCCc2ccc(Nc3ncc(Cl)c(Nc4c(C)cccc4C(=O)NC)n3)cc21`, the melting point lay in the range of 210 to 212 °C.

Consider `CN1C(C)(C)CN(CCO)C(=O)C1(C)C`, for which the melting point is 77 to 80 °C.

The compound `OCCCOc1cc(-c2ccccc2)cc(-c2ccccc2)n1` registered a melting point of 94 °C.

`CCc1cc(-c2nc(C)c(-c3ccnc(Nc4ccc(CNC(C)=O)cc4)n3)s2)ccn1` returned a melting point of 224 to 225 °C.

Turning to `CC(=O)Nc1ccc(C2=NN(C(=O)CCl)C(C)Cc3cc4c(cc32)OCO4)cc1` (stereo not drawn), the melting point fell in the range of 138 to 140 °C.

As for `C=CCC(F)(F)C(O)C(CC(C)C)NC(=O)c1ccccc1` (stereo not drawn), the melting point worked out at 110 °C.

Regarding `Clc1ccc(-c2nc3cccnc3n2Cc2ncc[nH]2)cc1`, the melting point is 184 to 185 °C.

With `CC(C)Cn1c(-c2c(F)cccc2F)cnc(-n2cccn2)c1=O`, the melting point fell in the range of 91 to 92 °C.

As to `O=S(=O)(O)c1ccc(Nc2ncnc3ccc(Cl)cc23)cc1`, the melting point was above 300 °C.

`CCCCCCOc1ccc(C=[N+]([O-])CCC)cc1` displayed a melting point of 45 °C.

On to `c1ccc2c(c1)C1(CO1)c1ccccc1C21CO1` (stereo not drawn), for which the melting point is 119 to 121 °C.

With `CCCCCCN(C=CC=C(C#N)C#N)CCCCCC`, the melting point lay in the range of 112 to 113 °C.

In turn, `O=C(O)CCSC1c2cccc(O)c2C(=O)c2c(O)cccc21` registered a melting point of 152 to 153 °C.

As for `CCCCCNC(=O)NCCCCCOc1cccc2sc(NC(C)=O)nc12`, the melting point fell in the range of 61.6 to 61.8 °C.

`CNC(=O)Oc1ccc(N=Cc2ccccc2O)c2ccccc12` yielded a melting point of 143 to 146 °C.

The compound `CCCCOC(=O)CNC(=O)c1ncccc1OCc1ccccc1` registered a melting point of 55 to 58 °C.

Take `Cc1cccc(C)c1NC(=O)c1ccc(C(F)(F)F)cc1`: the melting point fell in the range of 206 to 207 °C.

As for `O=C(O)CCc1cnoc1-c1ccc(Br)cc1`, the melting point lay within 164 to 165 °C.

As for `CNc1nn2c(N)nnc2c2c1CCCC2`, the melting point fell in the range of 295 to 297 °C.

`CC(C)(C)OC(=O)N1C(=O)C(Br)=C(c2cn(C(=O)OC(C)(C)C)c3cc(OCc4ccccc4)ccc23)C1=O` returned a melting point of 120 °C.

Compound `CC(C)c1ccc(S(=O)(=O)n2c(CCCC(=O)O)cc3cc(Cl)ccc32)cc1` came in with a melting point of 148 °C.

Take `Cn1nc(Nc2cc(-c3ccc(F)c(-c4c(C(N)=O)sc5c4C(O)C(C)(C)C5)c3)nn(C)c2=O)cc1CN1CCC1` (stereo not drawn): the melting point is 110 to 111 °C.

Regarding `CC(=O)Nc1cccc2c1C(=O)C1(NC(C)=O)c3ccc(C(C)C)cc3OC21O` (stereo not drawn), the melting point fell in the range of 189 to 191 °C.

`COc1nc(C(F)(F)F)cc(=O)n1-c1cc(OCCON=C(C)C)c(Br)cc1F` came in with a melting point of 149 to 150 °C.

`CCOP1(=O)OCC(C)(C)c2cc(OS(C)(=O)=O)ccc2O1` (stereo not drawn) yielded a melting point of 113 to 115 °C.

`CCC(=NOCC=CCl)C1=C(O)CC(c2ccc(NS(C)(=O)=O)cc2)CC1=O` (stereo not drawn) displayed a melting point of 125 to 127 °C.

The compound `CCOC(=O)c1ccc(CN2CCC(NC(=O)OC(C)(C)C)CC2)cc1` gave a melting point of 74 to 76 °C.

Regarding `CSC(=S)C1(c2ccccn2)CCCS1` (stereo not drawn), the melting point was found to be 64 °C.

For `O=C(O)C1=Cc2ccccc2NC1`, the melting point lay within 223 to 226 °C.

`Cc1cc(C)c(Nc2nc(C)ccc2S(=O)(=O)c2ccc(-c3ccccc3)cc2)c(C)c1` registered a melting point of 140 to 141 °C.

Take `CCOC(=O)/C=C/c1cn(Cc2ccc(OCc3ccccc3)cc2)nc1-c1ccc(F)cc1`: the melting point was 113 to 114 °C.

On to `CC(=O)Oc1c(Cl)c(C(C)(C)C)oc(=O)c1-c1c(C)cc(C)cc1C`, for which the melting point lay in the range of 116 to 118 °C.

In turn, `COc1ccc(-c2cc3c(N4CCc5ccccc54)ncnc3[nH]2)cc1` displayed a melting point above 300 °C.

The compound `O=C(O)C1Nc2ccccc2-c2c([N+](=O)[O-])cnn21` (stereo not drawn) showed a melting point of 203 to 205 °C.

The compound `CC(C)N(CCC(CCN(C)C1CCCCC1)(C(N)=O)c1ccccc1)C(C)C` (stereo not drawn) came in with a melting point of 90 to 91 °C.

`CCc1cc(OC)c(-c2csc(NC(=O)c3cc4ccccc4[nH]3)n2)c(OC)c1` came in with a melting point above 260 °C.

Turning to `NS(=O)(=O)c1ccc(-c2c(-c3ccccc3)noc2COCCS(=O)(=O)CCO)cc1`, the melting point turned out to be 81 °C.

The compound `Nn1c(-c2ccccc2Cl)nnc1-c1ccccc1Cl` returned a melting point of 168 to 170 °C.

In turn, `CCOC(=O)c1cn(C2CC2)c2c(F)c(NCCO)c(F)c(F)c2c1=O` gave a melting point of 193 to 195 °C.

In turn, `COc1ccc(OCc2ccc(=O)n(Cc3ccc(Cl)cc3)c2)cc1` came in with a melting point of 114 °C.

As to `CCOC(=O)CC(Cc1ccccc1)NC(=O)c1ccc(OC)cc1` (stereo not drawn), the melting point is 102 to 104 °C.

In turn, `CN(CCCNC1=CC(=O)c2scnc2C1=O)CCCNC1=CC(=O)c2scnc2C1=O` returned a melting point of 223 to 224 °C.

In turn, `ClCc1cn2c(-c3ccccc3)cccc2n1` registered a melting point of 126 to 127 °C.

For the compound `O=C1c2cc(Cl)ccc2Cc2cccc(Cl)c21`, the melting point lay in the range of 160 to 165 °C.

Consider `Nc1ncc(C2OC(CO)C(O)C2O)c(=O)[nH]1` (stereo not drawn), for which the melting point was in the range of 216 to 217 °C.

`Cc1cc(C)c(CNc2cccc(S(=O)(=O)O)c2)c(C)c1` yielded a melting point above 275 °C.

Consider `O=C1CCC(N2Cc3c(CNC(=O)c4ccncc4)cccc3C2=O)C(=O)N1` (stereo not drawn), for which the melting point was in the range of 282 to 284 °C.

In turn, `Cn1c(=O)[nH]c(=O)n(-c2cc(Oc3ncc(C(F)(F)F)cc3Cl)ccc2Br)c1=O` displayed a melting point of 97 to 110 °C.

In turn, `CCn1nc2c(N)nc3ccccc3c2c1CC(C)(C)NS(C)(=O)=O` showed a melting point of 229 to 230 °C.

Compound `C=C=CC12CCC(=O)C=C1C=CC1C3CCC(=O)C3(C)CCC12` (stereo not drawn) returned a melting point of 152 to 154 °C.

`CCOC(=O)c1c(CN(CC)CC)nc2cc(OC)c(OC)cc2c1-c1ccc(Cl)c(Cl)c1` came in with a melting point of 157 to 158 °C.

The compound `CCC(C(C)=CC(CNC(=O)c1nc[nH]n1)=NO)[N+](=O)[O-]` (stereo not drawn) yielded a melting point of 131 to 136 °C.

The compound `COc1cc(C(CBr)(OC)OC)ccc1OS(=O)(=O)c1ccccc1` yielded a melting point of 134 °C.

Regarding `C1CNCCN2CCNCCNCCN(CCN1)CCOCCOCC2`, the melting point is 75 °C.

Regarding `O=Cc1cccc(-c2ccoc2)n1`, the melting point lay within 59 to 61 °C.

The compound `O=C(Cn1ccnc1)C12CC3CC(CC(C3)C1)C2` had a melting point of 130 °C.

For the compound `CC(C)(C)c1cc(I)c2c(c1)CNC1(CCCCC1)O2`, the melting point fell in the range of 112 to 114 °C.

The compound `CCCOC(=O)c1c(CSc2nccn2C)nc2cc(OC)c(OC)cc2c1-c1ccc(OC)c(OC)c1` had a melting point of 131 to 132 °C.

On to `CCc1nnc2c(N(CC)CC)nc3ccccc3n12`, for which the melting point fell in the range of 98 to 100 °C.

For the compound `N#Cc1cc(C(=O)c2ccc(C(F)(F)F)cc2)cc(O)c1O`, the melting point lay within 204 to 206 °C.

Take `Cc1cc(C)cc(S(=O)(=O)n2c(CCC(=O)O)cc3cc(Cl)ccc32)c1`: the melting point fell in the range of 189 to 193 °C.

For the compound `COc1cc(NC(C)=O)ccc1C=NNC(=N)NN=Cc1ccc(NC(C)=O)cc1OC`, the melting point is 287 to 288 °C.

As for `OC(c1ccccc1)c1ccc(-c2ccccc2)cc1` (stereo not drawn), the melting point was in the range of 72 to 73 °C.

For `Cc1cccc(-c2[nH]c(C(C)C)nc2-c2cccc(-c3ccc(NS(C)(=O)=O)cc3)c2)n1`, the melting point lay within 128 to 130 °C.

Take `CC1(C)CC(=C(c2ccc(O)cc2)c2ccc(CCCO)cc2)CC(C)(C)C1`: the melting point lay within 160 to 161 °C.

For the compound `CCC(O)(C#Cc1ncn2c1CN(C)C(=O)c1c(Cl)cccc1-2)CC`, the melting point was in the range of 186 to 188 °C.

Take `CN1C(=O)CN(C(=O)NC2C3CC4CC(C3)CC2C4)C(c2ccccc2)c2ccccc21` (racemic): the melting point lay in the range of 243 to 244 °C.

On to `O=[N+]([O-])c1cc(O)cc2cc(-c3ccc(O)cc3)oc12`, for which the melting point fell in the range of 236 to 237 °C.

In the case of `CC(CNC(=O)OC(C)(C)C)n1nnnc1S` (stereo not drawn), the melting point lay in the range of 156 to 158 °C.

`CNc1cc(Cc2c(-c3ccc(OCCN4CCCC4)cc3)sc3cc(O)ccc23)ccc1CN1CCCC1` showed a melting point of 99 to 102 °C.

For `Cc1c(S(=O)(=O)Nc2ccc(-c3ncco3)cc2S(C)(=O)=O)sc2ccc(F)cc12`, the melting point is 207 to 208 °C.

For the compound `CCn1cc(C(=O)O)c(=O)c2cc(F)c(N3CCC(CN)C3)nc21` (stereo not drawn), the melting point is 217 to 218 °C.

Consider `CN(C)C(=O)N(COCCCl)c1ccc(C(F)(F)F)cc1`, for which the melting point was determined as 39 °C.

The compound `O=c1c2cccnc2c(-c2cccc([N+](=O)[O-])c2)nn1-c1ccccc1` gave a melting point of 167 °C.

Take `CNS(=O)(=O)c1cc2c(cc1CC(=O)O)CCCC2`: the melting point was 153 to 155 °C.

Turning to `CCCN(Sc1nc2ccccc2s1)C(C)(C)C`, the melting point was 55 to 56 °C.

Regarding `CCCCNC(=O)ON1C(C)(C)CC(OC(=O)c2cccc(C(=O)OC3CC(C)(C)N(OC(=O)NCCCC)C(C)(C)C3)c2)CC1(C)C`, the melting point was 176 to 177 °C.

For `C=CC(CC(O)C(CC1CCCCC1)NC(=O)C(Cc1c[nH]cn1)NC(=O)C(Cc1ccccc1)Cc1ccccc1)C(C)C` (stereo not drawn), the melting point came to 98 °C.

In turn, `COc1cc2nc(N)nc(-c3ccccc3Br)c2cc1OC` registered a melting point of 241 to 243 °C.

`CCCc1c(OCCCOc2ccc(C(=O)CO)c(OC)c2CCC)ccc2c1OC(C(=O)OC)CC2` (stereo not drawn) displayed a melting point of 87 to 88 °C.

Consider `CCC(C(=O)OC)(C(=O)OC)C(Cc1cc(Cl)ccc1[N+](=O)[O-])c1ccc(OC)cc1` (stereo not drawn), for which the melting point is 95.5 to 97 °C.

In the case of `NC(=O)c1cccc(OCCCCCCCc2ccsc2)c1`, the melting point was 97 to 100 °C.

As to `COc1ccc(C2=NN(c3ccccn3)C(=O)CC2)cc1`, the melting point is above 300 °C.

Compound `CC(C)(C)c1cc(-c2nc3n(c2CO)CCS3)cc(C(C)(C)C)c1O` gave a melting point of 227 to 229 °C.

As to `N#Cc1ccc(N2CCC(O)CC2)c2ccccc12`, the melting point lay in the range of 126 to 127 °C.
